Organism: Rattus norvegicus
Assay: DrugMatrix - Regimen: Daily Repeat
Format: toxicity, organism-based, Sprague-Dawley
Design: regimen Daily Repeat, gender Male, age 6-8 weeks
Details: in vivo, po, route oral GAVAGE, vehicle 100 % WATER; for ABSOLUTE BASOPHIL / ABSOLUTE EOSINOPHIL / ABSOLUTE LYMPHOCYTE / ABSOLUTE MONOCYTE / ABSOLUTE SEGMENTED NEUTROPHIL / BASOPHIL / EOSINOPHIL / ERYTHROCYTE COUNT / HEMATOCRIT / HEMOGLOBIN / LEUKOCYTE COUNT / LYMPHOCYTE / MEAN CORPUSCULAR HEMOGLOBIN / MEAN CORPUSCULAR HEMOGLOBIN CONCENTRATION / MEAN CORPUSCULAR VOLUME / MONOCYTE / NEUTROPHIL / NUCLEATED RED BLOOD CELLS / PLATELET COUNT: tissue Blood; for ALANINE AMINOTRANSFERASE / ALBUMIN / ALKALINE PHOSPHATASE / ASPARTATE AMINOTRANSFERASE / BLOOD UREA NITROGEN / CARBON DIOXIDE / CHLORIDE / CHOLESTEROL / CREATINE PHOSPHOKINASE / CREATININE / GLUCOSE / LACTATE DEHYDROGENASE / LIPASE / PHOSPHORUS / POTASSIUM / SODIUM / TOTAL BILIRUBIN / TOTAL PROTEIN / URIC ACID: tissue Plasma
[1] = 28 mg/kg, 120 h, dose level Low, time 5 day
[2] = 100 mg/kg, 72 h, dose level High, time 3 day
[3] = 100 mg/kg, 120 h, dose level High, time 5 day

Cn1cc[nH]c1=S [METHIMAZOLE]
ABSOLUTE BASOPHIL [1]: 0 CELLS/uL
ABSOLUTE EOSINOPHIL [1]: 0 CELLS/uL
ABSOLUTE LYMPHOCYTE [1]: 6311.33 CELLS/uL
ABSOLUTE MONOCYTE [1]: 62 CELLS/uL
ABSOLUTE SEGMENTED NEUTROPHIL [1]: 560 CELLS/uL
BASOPHIL [1]: 0%
EOSINOPHIL [1]: 0%
ERYTHROCYTE COUNT [1]: 5.37 x10E6/uL
HEMATOCRIT [1]: 33.8%
HEMOGLOBIN [1]: 13.17 G/DL
LEUKOCYTE COUNT [1]: 6.93 x10E3/uL
LYMPHOCYTE [1]: 90.67%
MEAN CORPUSCULAR HEMOGLOBIN [1]: 24.57 pg
MEAN CORPUSCULAR HEMOGLOBIN CONCENTRATION [1]: 38.93 G/DL
MEAN CORPUSCULAR VOLUME [1]: 63.03 fL
MONOCYTE [1]: 0.67%
NEUTROPHIL [1]: 8.67%
NUCLEATED RED BLOOD CELLS [1]: 0.33 /100WBC
PLATELET COUNT [1]: 1274.33 x10E3/uL
ALANINE AMINOTRANSFERASE [1]: 41.33 u/L
ALBUMIN [1]: 4.13 G/DL
ALKALINE PHOSPHATASE [1]: 368.67 u/L
ASPARTATE AMINOTRANSFERASE [1]: 68.67 u/L
BLOOD UREA NITROGEN [1]: 19.67 mg/dL
CARBON DIOXIDE [1]: 30.33 mmol/L
CHLORIDE [1]: 101 MEQ/L
CHOLESTEROL [1]: 101.33 mg/dL
CREATINE PHOSPHOKINASE [1]: 173 u/L
CREATININE [1]: 0.18 mg/dL
GLUCOSE [1]: 143.67 mg/dL
LACTATE DEHYDROGENASE [1]: 143.67 u/L
LIPASE [1]: 9 u/L
PHOSPHORUS [1]: 10.27 mg/dL
POTASSIUM [1]: 4.87 MEQ/L
SODIUM [1]: 144.47 MEQ/L
TOTAL BILIRUBIN [1]: 0.17 mg/dL
TOTAL PROTEIN [1]: 6.43 G/DL
URIC ACID [1]: 0.53 mg/dL
ABSOLUTE BASOPHIL [2]: 0 CELLS/uL
ABSOLUTE EOSINOPHIL [2]: 0 CELLS/uL
ABSOLUTE LYMPHOCYTE [2]: 13500.67 CELLS/uL
ABSOLUTE MONOCYTE [2]: 119.33 CELLS/uL
ABSOLUTE SEGMENTED NEUTROPHIL [2]: 980 CELLS/uL
BASOPHIL [2]: 0%
EOSINOPHIL [2]: 0%
ERYTHROCYTE COUNT [2]: 5.56 x10E6/uL
HEMATOCRIT [2]: 35.97%
HEMOGLOBIN [2]: 14.1 G/DL
LEUKOCYTE COUNT [2]: 14.6 x10E3/uL
LYMPHOCYTE [2]: 92.67%
MEAN CORPUSCULAR HEMOGLOBIN [2]: 25.4 pg
MEAN CORPUSCULAR HEMOGLOBIN CONCENTRATION [2]: 39.2 G/DL
MEAN CORPUSCULAR VOLUME [2]: 64.73 fL
MONOCYTE [2]: 1%
NEUTROPHIL [2]: 6.33%
NUCLEATED RED BLOOD CELLS [2]: 0.67 /100WBC
PLATELET COUNT [2]: 1423.33 x10E3/uL
ALANINE AMINOTRANSFERASE [2]: 46.33 u/L
ALBUMIN [2]: 4.03 G/DL
ALKALINE PHOSPHATASE [2]: 326.67 u/L
ASPARTATE AMINOTRANSFERASE [2]: 72 u/L
BLOOD UREA NITROGEN [2]: 11 mg/dL
CARBON DIOXIDE [2]: 26 mmol/L
CHLORIDE [2]: 103 MEQ/L
CHOLESTEROL [2]: 84.67 mg/dL
CREATINE PHOSPHOKINASE [2]: 581 u/L
CREATININE [2]: 0.17 mg/dL
GLUCOSE [2]: 154.33 mg/dL
LACTATE DEHYDROGENASE [2]: 228.33 u/L
LIPASE [2]: 9 u/L
PHOSPHORUS [2]: 11.6 mg/dL
POTASSIUM [2]: 6.41 MEQ/L
SODIUM [2]: 143.17 MEQ/L
TOTAL BILIRUBIN [2]: 0.17 mg/dL
TOTAL PROTEIN [2]: 5.97 G/DL
URIC ACID [2]: 1.63 mg/dL
ABSOLUTE BASOPHIL [3]: 0 CELLS/uL
ABSOLUTE EOSINOPHIL [3]: 40.33 CELLS/uL
ABSOLUTE LYMPHOCYTE [3]: 11963 CELLS/uL
ABSOLUTE MONOCYTE [3]: 169.33 CELLS/uL
ABSOLUTE SEGMENTED NEUTROPHIL [3]: 727.33 CELLS/uL
BASOPHIL [3]: 0%
EOSINOPHIL [3]: 0.33%
ERYTHROCYTE COUNT [3]: 5.44 x10E6/uL
HEMATOCRIT [3]: 33.7%
HEMOGLOBIN [3]: 13.17 G/DL
LEUKOCYTE COUNT [3]: 12.9 x10E3/uL
LYMPHOCYTE [3]: 93%
MEAN CORPUSCULAR HEMOGLOBIN [3]: 24.23 pg
MEAN CORPUSCULAR HEMOGLOBIN CONCENTRATION [3]: 39.1 G/DL
MEAN CORPUSCULAR VOLUME [3]: 61.97 fL
MONOCYTE [3]: 1.33%
NEUTROPHIL [3]: 5.33%
NUCLEATED RED BLOOD CELLS [3]: 0 /100WBC
PLATELET COUNT [3]: 1288.67 x10E3/uL
ALANINE AMINOTRANSFERASE [3]: 33.33 u/L
ALBUMIN [3]: 3.97 G/DL
ALKALINE PHOSPHATASE [3]: 316.33 u/L
ASPARTATE AMINOTRANSFERASE [3]: 51.33 u/L
BLOOD UREA NITROGEN [3]: 17.33 mg/dL
CARBON DIOXIDE [3]: 21 mmol/L
CHLORIDE [3]: 104.67 MEQ/L
CHOLESTEROL [3]: 79.67 mg/dL
CREATINE PHOSPHOKINASE [3]: 460 u/L
CREATININE [3]: 0.19 mg/dL
GLUCOSE [3]: 165.33 mg/dL
LACTATE DEHYDROGENASE [3]: 433 u/L
LIPASE [3]: 11.33 u/L
PHOSPHORUS [3]: 10.1 mg/dL
POTASSIUM [3]: 5.88 MEQ/L
SODIUM [3]: 143.5 MEQ/L
TOTAL BILIRUBIN [3]: 0.2 mg/dL
TOTAL PROTEIN [3]: 6.17 G/DL
URIC ACID [3]: 1.43 mg/dL

— ChEMBL document CHEMBL3885881, “DrugMatrix”
